Source: PMC8383802 (ACS chemical neuroscience, 2020)
pIC50: −log10 of the molar value.

Key:
alcohol intake = conditions: cited from earlier work; for alcohol intake: mice, without altering total fluid intake, alcohol-induced sedation or alcohol metabolism
[1] = test system: cocaine self-administered mice; assay: Cocaine self-administration in mice
[2] = test system: alcohol self-administration; conditions: cited from earlier work
[3] = test system: morphine-induced hyper-locomotor activity; conditions: cited from earlier work
cocaine reward = conditions: cited from earlier work
[4] = test system: heroin self-administration; conditions: cited from earlier work
[5] = test system: Meth self-administered rats; conditions: cited from earlier work
[6] = test system: methamphetamine (Meth)-induced hyper-locomotor activity; conditions: cited from earlier work
PDE4B = PDE4B (Homo sapiens, UniProt Q07343); assay: IC50 determination on PDE4 isoforms in vitro; format: binding; conditions: read-out: IC50 on PDE4B
[7] = Brain and blood concentration of KVA-D-88 in mice; format: in vivo
PDE4D = PDE4D (Homo sapiens, UniProt Q08499); assay: IC50 determination on PDE4 isoforms in vitro; format: binding; conditions: read-out: IC50 on PDE4D
[8] = Pharmacokinetic study of KVA-D-88 in mice; format: in vivo
WT C57/BL6 mice = format: in vivo
[9] = FR1 schedule, 2 h, 5 and 2.5 mg/kg i.p. 30 min before, P < 0.05
[10] = FR3 schedule, 2 h session, 5 mg/kg, P < 0.05

Sequence of PDE4B (Q07343 whole entry, canonical isoform): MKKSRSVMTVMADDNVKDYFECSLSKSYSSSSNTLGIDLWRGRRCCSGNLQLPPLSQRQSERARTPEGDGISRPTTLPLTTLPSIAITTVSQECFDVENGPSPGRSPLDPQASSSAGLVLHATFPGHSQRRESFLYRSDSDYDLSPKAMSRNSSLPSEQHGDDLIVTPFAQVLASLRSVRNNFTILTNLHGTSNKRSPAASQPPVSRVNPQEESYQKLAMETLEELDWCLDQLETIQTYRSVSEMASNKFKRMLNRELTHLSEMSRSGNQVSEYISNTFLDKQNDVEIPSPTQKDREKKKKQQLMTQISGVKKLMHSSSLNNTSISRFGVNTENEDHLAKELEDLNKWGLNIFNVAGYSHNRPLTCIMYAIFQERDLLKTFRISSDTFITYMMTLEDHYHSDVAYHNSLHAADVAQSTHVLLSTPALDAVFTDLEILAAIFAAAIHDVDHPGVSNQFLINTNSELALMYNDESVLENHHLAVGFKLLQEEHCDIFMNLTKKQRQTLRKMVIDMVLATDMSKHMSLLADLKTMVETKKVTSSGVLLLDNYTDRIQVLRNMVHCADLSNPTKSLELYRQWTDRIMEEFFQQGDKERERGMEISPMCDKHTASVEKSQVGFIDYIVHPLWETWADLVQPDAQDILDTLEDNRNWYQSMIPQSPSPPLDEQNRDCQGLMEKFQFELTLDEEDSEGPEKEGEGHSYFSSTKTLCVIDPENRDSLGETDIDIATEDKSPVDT
Sequence of PDE4D (Q08499 whole entry, canonical isoform): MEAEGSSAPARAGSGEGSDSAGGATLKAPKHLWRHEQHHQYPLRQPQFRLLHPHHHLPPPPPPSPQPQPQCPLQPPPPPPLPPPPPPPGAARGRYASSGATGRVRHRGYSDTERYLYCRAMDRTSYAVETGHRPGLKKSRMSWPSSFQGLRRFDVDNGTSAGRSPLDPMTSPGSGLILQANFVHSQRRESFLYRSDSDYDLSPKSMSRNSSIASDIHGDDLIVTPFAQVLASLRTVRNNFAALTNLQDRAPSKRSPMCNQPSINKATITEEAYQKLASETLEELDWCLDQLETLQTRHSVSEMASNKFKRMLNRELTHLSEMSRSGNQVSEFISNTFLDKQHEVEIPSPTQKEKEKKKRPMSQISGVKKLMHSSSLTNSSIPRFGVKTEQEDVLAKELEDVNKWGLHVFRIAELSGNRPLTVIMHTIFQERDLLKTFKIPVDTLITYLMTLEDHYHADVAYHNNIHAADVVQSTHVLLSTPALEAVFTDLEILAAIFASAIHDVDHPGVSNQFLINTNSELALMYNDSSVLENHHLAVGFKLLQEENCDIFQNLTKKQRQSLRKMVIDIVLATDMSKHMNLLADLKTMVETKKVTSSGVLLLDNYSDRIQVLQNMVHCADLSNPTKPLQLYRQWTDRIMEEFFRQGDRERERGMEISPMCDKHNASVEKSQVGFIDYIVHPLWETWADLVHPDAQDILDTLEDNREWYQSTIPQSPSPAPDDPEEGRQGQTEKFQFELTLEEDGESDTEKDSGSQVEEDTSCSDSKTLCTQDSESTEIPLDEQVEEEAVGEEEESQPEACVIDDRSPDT

SMILES: CCOc1cc([C@@H](CS(C)(=O)=O)N2C(=O)c3cccc(NC(C)=O)c3C2=O)ccc1OC [apremilast, reference compound]
- reward-related behavior induced by alcohol (alcohol intake): decreasing the reward-related behavior induced by alcohol
- effect on numbers of cocaine self-intake ([1]; dose 5 mg/kg): did not decrease
- effect on numbers of cocaine self-intake ([1]; dose 20 mg/kg): significant its inhibitory effects

SMILES: COc1ccc(C2CNC(=O)C2)cc1OC1CCCC1 (stereo not shown) [rolipram]
- 2-bottle choice alcohol consumption and preference [2]: decreased
- alcohol self-administration [2]: dose-dependently reduced
- morphine-induced hyper-locomotor activity and CPP [3]: reduced
- cocaine-induced locomotor sensitization and conditional place preference (cocaine reward; mice): attenuated
- cocaine reward, incentive saliency and seeking behavior (cocaine reward; open field test, CPP and self-administration): reduce cocaine reward, incentive saliency and seeking behavior
- heroin self-administration ([4]; fixed ratio 1 (FR1)): did not significantly inhibit
- rewarding effects of heroin ([4]; progressive ratio (PR) paradigm): decreased the rewarding effects
- Meth-mediated seeking and consumption behaviors [5]: effective in attenuating
- alcohol intake (alcohol intake): reduced alcohol intake

SMILES: CC(N)C(=O)c1c(C(C)C)nn2ccccc12 (stereo not shown) [AV1013]
- Meth-induced hyper-locomotor activity and sensitization [6]: reduced

SMILES: O=C(c1cc2cccnc2n1-c1ccc(Cl)c(Cl)c1)N1CC(F)(F)C1 [KVA-D-88]
- pIC50 (PDE4B): 6.85
- average concentration in the blood ([7]; i.p. 10 mg/kg, 30 min later): 3899.2 ng/mL
- concentration ratio of brain: blood (Kp) ([7]; i.p. 10 mg/kg, 30 min later): approximately 0.6
- average concentration in the brain ([7]; i.p. 10 mg/kg, 30 min later, whole brain homogenates): 2347.7 ng/g
- concentration ratio (brain vs. plasma) ([7]; i.v. dosing as printed in the discussion): 0.6
- concentration ratio (brain vs. plasma) ([7]; p.o. dosing (10 mg/kg)): 1.2
- pIC50 (PDE4D): 6.06
- rate of cocaine self-administration ([1]; FR1 schedule, 5.0 mg/kg, P < 0.05): strikingly reduced
- number of active nose-pokes [1, 9]: significantly decreased
- number of cocaine infusions [1, 9]: significantly decreased
- numbers of active nose-poke [1, 10]: significantly decreased
- numbers of cocaine infusions [1, 10]: significantly decreased
- break point ([1]; PR schedule, 3 h session, 5 mg/kg, P < 0.05): significantly decreased the numbers of break point
- fold stronger than apremilast on cocaine inhibition ([1]; cocaine self-intake, comparison of effective doses): ~10 fold
- effect on cocaine self-intake (active nose poke), dose-response ([1]; dose 0.5 mg/kg): no inhibitory effect
- effect on cocaine self-intake (active nose poke), dose-response ([1]; dose 1.0 mg/kg): no inhibitory effect
- effect on cocaine self-intake (active nose poke), dose-response ([1]; dose 2 mg/kg): showed the inhibitory effects but did not reached the significance
- effect on cocaine self-intake (active nose poke), dose-response ([1]; dose 4 mg/kg, P < 0.05): significant effects
- half-life (t1/2) ([8]; i.v. injection 1 mg/kg): 6.1 h
- mean residence time (MRT) ([8]; i.v. injection 1 mg/kg): 5.7 h
- AUC from time zero to infinity (AUC∞) ([8]; i.v. injection 1 mg/kg, plasma): 1387.9 ng/mL
- AUC from time zero to the last measurable concentration (AUClast) ([8]; i.v. injection 1 mg/kg, plasma): 1382.9 ng/mL
- maximum plasma concentration (Cmax) ([8]; i.v. injection 1 mg/kg, plasma): 898.2 ng/mL
- AUC∞ ([8]; oral gavage 10 mg/kg): 10825.9 ng/mL
- Cmax in the blood ([8]; oral gavage 10 mg/kg): 2150.5 ng/mL
- half-life (t1/2) ([8]; oral gavage 10 mg/kg): 7.16 h
- mean residence time (MRT) ([8]; oral gavage 10 mg/kg): 9 h
- time to reach maximum concentration in the blood (Tmax) ([8]; oral gavage 10 mg/kg): 0.25 h
- half-life ([8]; through either i.v. injection or p.o. approach): 6 to 7 h
- effect on cocaine-mediated hyper-locomotion (WT C57/BL6 mice; female mice, both testing doses (5 or 10 mg/kg i.p.), P < 0.05): significantly blocked cocaine-mediated hyper-locomotion
- effect on locomotor activity at basal levels (WT C57/BL6 mice; mice, KVA-D-88 without cocaine): minimal effects
- effect on cocaine-mediated locomotor sensitization (WT C57/BL6 mice; mice, daily pre-administration before cocaine for 7 consecutive days): strikingly blocked cocaine-mediated locomotor sensitization

SMILES: CC(C)C(=O)c1c(C(C)C)nn2ccccc12 [ibudilast]
- drug seeking and intake behaviors ([5]; Meth self-administered rats): decreased drug seeking and intake behaviors
- Meth-mediated seeking and consumption behaviors [5]: effective in attenuating
- Meth-induced hyper-locomotor activity and sensitization [6]: reduced

SMILES: CCCCOc1cc(CC2CNC(=O)N2)ccc1OC (stereo not shown) [Ro 20-1724]
- alcohol intake (alcohol intake): reduced alcohol intake
